# Measurements published in patent publication US11919854B2, “P2RX7 modulators in therapy” (Centre national de la recherche scientifique, priority 2018, dated 2024).
# Key:
# [1] = test system: NCI panel of 60 tumor cell lines; test: Toxicity on NCI panel of 60 tumor cell lines; type: cell-based; settings: HEK cell lines stably transfected with hP2RX7 or mP2RX7 and NCI panel of 60 human tumor cell lines
# Description: Toxicity of HEI_2333 and HEI_2336 was already tested on the NCI panel of 60 tumor cell lines (NCI 60-cell panel).
# [2] = Plasmatic concentration after intraperitoneal administration (LC-MS/MS); type: in vivo, mice; settings: ip
# Protocol: B. HEI 3090 is found within plasma until 18 h after intraperitoneal administration. Intraperitoneal administration of HEI-3090 (0.166 mg/mL in 10% DMSO) was performed and serum was taken at 0, 10, 20, 30, […], 120, 240, 360, 1080 and 1440 min. Plasmatic concentration was determined by LC-MS/MS and reached a maximum of 2.5 μM.
# Stability was studied in the mouse liver microsome system—and human, not shown—(FIG. 13A) and directly in vivo, for HEI3090 molecule (FIG. 13B). These experiments highlighted that HEI3090 is found at a concentration of maximum 2.5 μM in the plasma of mice injected with HEI3090 (ip, 1.5 mg/kg in 10% DMSO).
# [3] = test system: LLC (Lewis Lung Cancer) cells; test: Syngeneic tumor mice model, LLC subcutaneous; type: in vivo, C57BL6 mice
# Protocol: 5×10^5 LLC or 5×10^5 B16F10 cells were injected sub cutaneously in the right flank of C57BL6 mice. Mice received HEI3090 (ip, 2.5 mg/kg in 10% DMSO/PBS) daily or placebo (10% DMSO/PBS). A,C. incidence of tumor appearance B,D. Tumor size (mm2) and tumor weight at sacrifice day (J12). E. HEI-treated tumors are more immunogenic. Expression of CMH1 (H2K^b/D^b) and PD-L1 by LLC (black) and B16F10 (grey) tumors is shown in dot plots. Numbers highlighted the percentage of tumor cells positive for H2K^b/D^b and PD-L1. […] F. CD-45 positive infiltrates is increased in LLC and B16F10 tumors. *, p<0.05; **, p<0.01; ***, p<0.001 Mann-Whitney test.
# 5×10^5 LLC or 5×10^5 B16F10 cells were injected sub cutaneously in the right flank of C57BL6 mice. Mice received HEI3090 (ip, 2.5 mg/kg in 10% DMSO/PBS) daily or placebo (10% DMSO/PBS). A. The quantity of immunosuppressive cells is reduced. Dot plot of representative experiment. Numbers highlighted the percentage of M-MDSC and PMN-MDSC. […] B. The quantity of effector T cells ([…], NK, CD4+) is increased.
# 5×10^5 LLC cells were injected sub cutaneously in the right flank of C57BL6 mice. Mice received HEI3090 (ip, 2.5 mg/kg in 10% DMSO/PBS) alone or in presence of anti CD4 antibody daily or placebo (10% DMSO/PBS). A. Tumor growth from the 3 groups was followed daily. B. tumor weight at sacrifice day (J12). *, p<0.05; ****, p<0.0001 (Mann-Whitney test).
# a, b. Phenotypic flow cytometry analyses of tumor infiltrating cells. LLC tumors were collected at day 12. Proportion of PMN-MDSC among CD45+ within LLC tumors from mice treated with vehicle or HEI3090 (a). Ratio of NK, CD4+ or CD8+ T cells on PMN-MDSC (b).
# c, d. 5.105 LLC were injected s.c. into the flank of C57BL6/J mice. Then mice were treated i.p. with vehicle (PBS, 10% DMSO) or with HEI3090 (1.5 mg/kg in PBS, 10% DMSO) or with HEI3090 and depleting antibody against NK1.1, CD4+ or CD8+ T cells. Antibodies were administered i.p every 3 days (200 μg/injection). Spaghetti plots and tumor weight at day 12 (d). Each curve represents one mouse.
# e-g Functional flow cytometry analyses of tumor infiltrating immune cells or splenocytes. Tumors were stimulated with PMA/ionomycine and production of IFN-γ and IL-10 were simultaneously analyzed in CD45+, NK, CD4+ or CD8+ T cells. Graphs shown proportion of IFN-γ producing cells into CD45+ cells or geometric mean of fluorescence (e). Representative dot plots of IFN-γ and IL-10 staining into TILs (f). Ratios of IFN-γ on IL-10 positive cells on each TIL. Degranulation assay of splenocytes from LLC tumor bearing mice treated with vehicle or HEI3090 (g) Splenocytes were re-stimulated with LLC in vitro and CD107a positive cells in NK, CD4+ and CD8+ T cells were represented.
# a. Flow cytometry analyses of P2RX7 expression among conventional dendritic cells CD4+ or CD8+ within LLC tumors.
# b. Protein levels of IL-1p and IL-18 in serum of LLC tumor bearing mice treated with vehicle or HEI3090, determined by ELISA.
# c. 5.105 LLC were injected s.c. into the flank of C57BL6/J mice. Then mice were treated i.p. with vehicle (PBS, 10% DMSO) or with HEI3090 (1.5 mg/kg in PBS, 10% DMSO) or with HEI3090 and neutralizing antibody against IL-1p or IL-18 from day 1 to day 12. Antibodies were administered i.p every 3 days (200 μg/injection).
# e. Effect of HEI3090 on tumor growth in IL-18 deficient mice (IL-18^−/−). 5.105 LLC were injected s.c. into the flank of IL-18^−/− mice. Mice were treated i.p. with vehicle (PBS, 10% DMSO) or with HEI3090 (1.5 mg/kg in PBS, 10% DMSO) from day 1 to day 12.
# 4.2. By killing tumoral cells, HEI3090 may represent a new anti-tumor treatment. To test this hypothesis, immunocompetent C57B16J mice were subcutaneously injected with 5×10^5 B16F10 or 5×10^5 LLC (Lewis Lung Cancer) cells and treated daily with HEI3090 (ip, 2.5 mg/kg in 10% DMSO/PBS) or placebo (10% DMSO/PBS). […]
# [4] = test system: B16-F10 cells; test: In vivo assay for immunogenic cell death (ICD), B16-F10; set-up: species or system mice; settings: B16-F10 exposed to 3 mM ATP and 50 μM HEI3090, contralateral challenge
# Protocol: a-b. In vivo assay for the evaluation of HEI3090 as an inducer of immunogenic cell death.
# To induce B16-F10 death, cells were exposed to 3 mM ATP and 50 μM HEI3090 and 1.105 dying cells, or PBS as control, were injected sc in the right flank (n=4). 7 days later, 0.5.105 live B16-F10 cells were injected s.c. in the contralateral flank. (a). Curves shown mean of tumor growth in the contralateral site (b).
# The inventors performed dedicated experiment to test the hypothesis that HEI3090 may induce immunogenic cell death (ICD).
structure (smiles),measurement,setting,value
"O=C(NCc1ccc(Cl)cc1Cl)[C@@H]1CCC(=O)N1C(=O)Nc1ccc(Cl)nc1 [HEI3090, (S)—N^1-(6-Chloropyridin-3-yl)-N^2-(2,4-dichlorobenzyl)-5-oxopyrrolidine-1,2-dicarboxamide]",toxicity in absence of the endogenous P2RX7 ligand (ATP),[1],non-toxic
same,time found within plasma after intraperitoneal administration,[2]; 0.166 mg/mL in 10% DMSO,≤ 18 h
same,maximum plasmatic concentration,"[2]; mice, 1.5 mg/kg in 10% DMSO (0.166 mg/mL in 10% DMSO)",2.5 µM
same,IL18 in plasma and within the tumor,"[3]; ELISA in serum, IHC in tumors",overexpressed
same,immune cells required for anti-tumor effect,"[3]; HEI3090 1.5 mg/kg ip with depleting antibody against NK1.1, CD4+ or CD8+ T cells",both NK and CD4+ cells are required
same,IFN-γ expression of NK and CD4+ cells in tumor,"[3]; HEI3090 1.5 mg/kg ip, flow cytometry",expressed more IFN-γ
same,immunosuppressive cells (PMN-MDSC) in tumor infiltrates,[3]; HEI3090 ip 2.5 mg/kg daily,less PMN-MDSC
same,tumors weight,[3]; HEI3090 ip 2.5 mg/kg daily (placebo 295 mg),80 mg
same,reduction of tumors weight,"[3]; HEI3090 ip 2.5 mg/kg daily, vs placebo",4 folds
same,tumor size with depletion of T CD4+ lymphocytes,[3]; HEI3090 plus anti-T CD4+ antibody,"bigger than tumors from the HEI3090 group, and smaller than tumors from the placebo group"
same,tumor growth without IL18,"[3]; blocking IL18 antibody and Il18−/− mice, HEI3090 1.5 mg/kg ip",did not block tumor growth anymore
same,P2RX7 expression on dendritic cells within tumors,[3]; flow cytometry,increased P2RX7 expression on dendritic cells
same,induction of immunogenic cell death (ICD),[4],does not promote ICD
